Laboratory results as given in patent US9051330B2, “Dithiolopyrrolones with therapeutic activity” (Welichem Biotech Inc., priority 2002, dated 2015).
Read-outs that look alike come from different tables or passages of the source.

What was measured:
Type in all cases: cell-based, human
H460 = test: NCI standard anti-proliferative test, H460 cells
Ovcar-3 cell line = test: NCI standard anti-proliferative test, ovarian cancer Ovcar-3 cells
From the text: (§1) These assays are commonly used by those skilled in the art and are accepted as indicative of antiproliferative activity in mammals. The antiproliferative activities of the compounds of the invention have been determined in cell cultures of human ovarian cancer, using a standard anti-proliferative test of the US National Cancer Institute (NCI). [Monks, A. et al., J. Natl. Cancer Inst. 83(11): 757-766, 1991].
The novel compound had activity against 56 cancer cell lines of a wide range of major cancers. (Table 1a).

HOP-92 = test: NCI anti-proliferative test, Non-Small Cell Lung Cancer HOP-92
HOP-62 = test: NCI anti-proliferative test, Non-Small Cell Lung Cancer HOP-62
HCT-15 = test: NCI anti-proliferative test, Colon Cancer HCT-15
TK-10 = test: NCI anti-proliferative test, Renal Cancer TK-10
UO-31 = test: NCI anti-proliferative test, Renal Cancer UO-31
K-562 = test: NCI anti-proliferative test, Leukemia K-562
MOLT-4 = test: NCI anti-proliferative test, Leukemia MOLT-4
OVCAR-8 = test: NCI anti-proliferative test, Ovarian Cancer OVCAR-8
From the text: as §1

NCI/ADR-RES = test: NCI anti-proliferative test, Breast Cancer NCI/ADR-RES
UACC-62 = test: NCI anti-proliferative test, Melanoma UACC-62
BT-549 = test: NCI anti-proliferative test, Breast Cancer BT-549
DU-145 = test: NCI anti-proliferative test, Prostate Cancer DU-145
786-0 = test: NCI anti-proliferative test, Renal Cancer 786-0
NCI-H226 = test: NCI anti-proliferative test, Non-Small Cell Lung Cancer NCI-H226
RXF 393 = test: NCI anti-proliferative test, Renal Cancer RXF 393
PC-3 = test: NCI anti-proliferative test, Prostate Cancer PC-3
HCC-2998 = test: NCI anti-proliferative test, Colon Cancer HCC-2998
T-47D = test: NCI anti-proliferative test, Breast Cancer T-47D
MDA-MB-231/ATCC = test: NCI anti-proliferative test, Breast Cancer MDA-MB-231/ATCC
LOX IMVI = test: NCI anti-proliferative test, Melanoma LOX IMVI
OVCAR-5 = test: NCI anti-proliferative test, Ovarian Cancer OVCAR-5
From the text: as §1

COLO 205 = test: NCI anti-proliferative test, Colon Cancer COLO 205
SW-620 = test: NCI anti-proliferative test, Colon Cancer SW-620
U251 = test: NCI anti-proliferative test, CNS Cancer U251
ACHN = test: NCI anti-proliferative test, Renal Cancer ACHN
KM12 = test: NCI anti-proliferative test, Colon Cancer KM12
NCI-H322M = test: NCI anti-proliferative test, Non-Small Cell Lung Cancer NCI-H322M
SK-MEL-2 = test: NCI anti-proliferative test, Melanoma SK-MEL-2
HT29 = test: NCI anti-proliferative test, Colon Cancer HT29
M14 = test: NCI anti-proliferative test, Melanoma M14
HS 578T = test: NCI anti-proliferative test, Breast Cancer HS 578T
SK-MEL-28 = test: NCI anti-proliferative test, Melanoma SK-MEL-28
MCF7 = test: NCI anti-proliferative test, Breast Cancer MCF7
UACC-257 = test: NCI anti-proliferative test, Melanoma UACC-257
SF-295 = test: NCI anti-proliferative test, CNS Cancer SF-295
EKVX = test: NCI anti-proliferative test, Non-Small Cell Lung Cancer EKVX
A498 = test: NCI anti-proliferative test, Renal Cancer A498
SK-MEL-5 = test: NCI anti-proliferative test, Melanoma SK-MEL-5
MALME-3M = test: NCI anti-proliferative test, Melanoma MALME-3M
SN12C = test: NCI anti-proliferative test, Renal Cancer SN12C
NCI-H522 = test: NCI anti-proliferative test, Non-Small Cell Lung Cancer NCI-H522
HL-60(TB) = test: NCI anti-proliferative test, Leukemia HL-60(TB)
MDA-MB-435 = test: NCI anti-proliferative test, Breast Cancer MDA-MB-435
A549/ATCC = test: NCI anti-proliferative test, Non-Small Cell Lung Cancer A549/ATCC
CAKI-1 = test: NCI anti-proliferative test, Renal Cancer CAKI-1
SNB-19 = test: NCI anti-proliferative test, CNS Cancer SNB-19
CCRF-CEM = test: NCI anti-proliferative test, Leukemia CCRF-CEM
SF-539 = test: NCI anti-proliferative test, CNS Cancer SF-539
NCI-H23 = test: NCI anti-proliferative test, Non-Small Cell Lung Cancer NCI-H23
SR = test: NCI anti-proliferative test, Leukemia SR
SF-268 = test: NCI anti-proliferative test, CNS Cancer SF-268
IGROV1 = test: NCI anti-proliferative test, Ovarian Cancer IGROV1
From the text: as §1

RPMI-8226 = test: NCI anti-proliferative test, Leukemia RPMI-8226
HCT-116 = test: NCI anti-proliferative test, Colon Cancer HCT-116
[1] = cancer cell line H460, read-out: IC50 H460
[2] = ovarian cancer cells Ovcar-3, comparison with XN3

## COc1ccc(-n2c3cssc-3c(NC(=O)CCC(=O)O)c2=O)c(OC)c1 [BLI-031-2]
H460; [1]
  IC50: > 50000 nM

## COc1ccc(-n2c3cssc-3c(NC(=O)c3ccc(C(F)(F)F)cc3)c2=O)c(OC)c1 [BLI-093]
Ovcar-3 cell line; [2]
  IC50: 54 nM

## COc1ccc(-n2c3cssc-3c(NC(=O)Cc3cccs3)c2=O)c(OC)c1 [Compound 0037]
Ovcar-3 cell line; [2]
  IC50: 71 nM

## COc1ccc(-n2c3cssc-3c(NC(=O)c3ccc([N+](=O)[O-])cc3)c2=O)c(OC)c1 [Compound 0038]
Ovcar-3 cell line; [2]
  IC50: 68 nM

## COc1ccc(-n2c3cssc-3c(NC(=O)c3cc(C(F)(F)F)cc(C(F)(F)F)c3)c2=O)c(OC)c1 [Compound 0058]
HOP-92
  IC50: 180 nM
Ovcar-3 cell line; Ovarian Cancer, OVCAR-3, 56 cell line panel
  IC50: 30 nM
Ovcar-3 cell line; [2]
  IC50: 34 nM
HOP-62
  IC50: 130 nM
HCT-15
  IC50: 20 nM
TK-10
  IC50: 1370 nM
UO-31
  IC50: 200 nM
K-562
  IC50: 19 nM
MOLT-4
  IC50: 150 nM
OVCAR-8
  IC50: 170 nM
NCI/ADR-RES
  IC50: 1040 nM
UACC-62
  IC50: 190 nM
BT-549
  IC50: 150 nM
DU-145
  IC50: 13 nM
786-0
  IC50: 60 nM
NCI-H226
  IC50: 270 nM
RXF 393
  IC50: 40 nM
PC-3
  IC50: 40 nM
HCC-2998
  IC50: 110 nM
T-47D
  IC50: 13 nM
MDA-MB-231/ATCC
  IC50: 130 nM
LOX IMVI
  IC50: 14 nM
OVCAR-5
  IC50: 450 nM
COLO 205
  IC50: 150 nM
SW-620
  IC50: 34 nM
U251
  IC50: 150 nM
ACHN
  IC50: 140 nM
KM12
  IC50: 2970 nM
NCI-H322M
  IC50: 8560 nM
SK-MEL-2
  IC50: 180 nM
HT29
  IC50: 50 nM
M14
  IC50: 240 nM
HS 578T
  IC50: 220 nM
SK-MEL-28
  IC50: 16 nM
MCF7
  IC50: 170 nM
UACC-257
  IC50: 150 nM
SF-295
  IC50: 230 nM
EKVX
  IC50: 130 nM
A498
  IC50: 190 nM
SK-MEL-5
  IC50: 120 nM
H460; Non-Small Cell Lung Cancer, NCI-H460, 56 cell line panel, read-out: IC50
  IC50: 260 nM
MALME-3M
  IC50: 190 nM
SN12C
  IC50: 120 nM
NCI-H522
  IC50: 190 nM
HL-60(TB)
  IC50: 19 nM
MDA-MB-435
  IC50: 220 nM
A549/ATCC
  IC50: 420 nM
CAKI-1
  IC50: 440 nM
SNB-19
  IC50: 230 nM
CCRF-CEM
  IC50: < 10 nM
SF-539
  IC50: 180 nM
NCI-H23
  IC50: 210 nM
SR
  IC50: 20 nM
SF-268
  IC50: 140 nM
IGROV1
  IC50: 170 nM
RPMI-8226
  IC50: < 10 nM
HCT-116
  IC50: 16 nM

## COc1ccc(-n2c3cssc-3c(NC(=O)c3ccc(CN4CCNCC4)cc3)c2=O)c(OC)c1 [Compound 0069]
H460; [1]
  IC50: 40 nM

## COc1ccc(-n2c3cssc-3c(NC(=O)c3cc(F)cc(F)c3)c2=O)c(OC)c1 [Compound R3]
Ovcar-3 cell line; [2]
  IC50: 78 nM

## COc1ccc(-n2c3cssc-3c(NC(=O)c3ccc(F)c(F)c3F)c2=O)c(OC)c1 [Compound R4]
Ovcar-3 cell line; [2]
  IC50: 46 nM

## COc1ccc(-n2c3cssc-3c(NC(=O)c3cccs3)c2=O)c(OC)c1 [WBL-007]
Ovcar-3 cell line; [2]
  IC50: 28 nM

## COc1ccc(-n2c3cssc-3c(NC(=O)c3ccc(F)cc3)c2=O)c(OC)c1 [WBL-018]
Ovcar-3 cell line; [2]
  IC50: 70 nM
